Literature values in paper PMC5686165, “Plant-to-plant communication triggered by systemin primes anti-herbivore resistance in tomato” (Scientific Reports, 2017).

Tested on: A. ervi
Details: tomato and A. ervi
Protocol: The possible biological relevance of the systemin-triggered priming was evaluated using three different types of source plants. […] The qualitative and quantitative differences in VOCs emissions were confirmed by PLSDA analysis and explain the effect on parasitoid attraction. Compared to R-S4, all receiver plants, after 24 hours of exposition to the t ...

## C=C(C)CC(C)CCC (stereo not shown) [2,4-dimethyl-1-heptene]
  elicitation of indirect defense in inter-specific plant-to-plant communication: powerful elicitor of indirect defense
